Source: patent US20070093513A1, “Agent for repairing corneal perception” (SENJU PHARMACEUTICAL CO., LTD., priority 2003, published 2007)
Counter-ions that a name gives are not always drawn.

Legend:
[1] = tested on: cultured rabbit trigeminal nerve cells; assay: Neurite outgrowth promoting effect in cultured rabbit trigeminal nerve cells (Experimental Example 2); type: cell-based, Japanese White Rabbits; conditions: cultured for 48 hrs, non-addition group about 31%
Description: Japanese White Rabbits (2-3 days old) purchased from KITAYAMA LABES Co., Ltd. were used.
As a ROCK inhibitor, 2-chloro-6,7-dimethoxy-N-[5-1H-indazolyl]quinazoline-4-amine, N-(1-benzyl-4-piperidinyl)-1H-indazole-5-amine dihydrochloride, 4-[2-(2,3,4,5,6-pentafluorophenyl)acryloyl]cinnamic acid and fasudil hydrochloride were used.
2-Chloro-6,7-dimethoxy-N-[5-1H-indazolyl]quinazoline-4-amine (hereinafter to be indicated as compound 1) used was synthesized according to Reference Example 1. N-(1-benzyl-4-piperidinyl)-1H-indazole-5-amine dihydrochloride.½ hydrate (hereinafter to be indicated as compound 2) used was synthesized according to Reference Example 2. 4-[2-(2,3,4,5,6-Pentafluorophenyl)acryloyl]cinnamic acid (hereinafter to be indicated as compound 3) used was synthesized according to Reference Example 3. Fasudil hydrochloride (hereinafter to be indicated as compound 4) used was a commercially available fasudil hydrochloride hydrate injection, “Eril Injection 30 mg” (manufactured by Asahi Kasei Corporation).
Rabbit trigeminal nerve cells were isolated in the same manner as in Experimental Example 1. For cell culture, a culture medium obtained by adding B27 Supplement (manufactured by GIBCO; final concentration 2% v/v) and L-glutamine (manufactured by GIBCO; concentration 1 mM) to neurobasal culture medium (manufactured by GIBCO) was used. A circular cover glass (diameter 12 mm; manufactured by SUMITOMO BAKELITE) after polylysine/laminin coating was placed in each well of a 24 well plate, and cells were plated on the cover glass at about 3×10^3 cells/well. After cell adhesion to the cover glass (about 2 hrs), the above-mentioned culture medium was changed to a culture medium containing each test substance (compound 1, final concentration 10 μM; compound 2, final concentration 10 μM; compound 3, final concentration 1 μM; compound 4, final concentration 10 μM) and the cells were cultured for 48 hrs. […]
A specimen fixed using an anti-neurofilament 200 antibody (manufactured by Sigma) that recognize neurofilaments, which are intermediate filaments specific to nerve cell, and a fluorescent secondary antibody (manufactured by Molecular Probes) reactive therewith was fluorescence stained and the stained cells were detected using a fluorescence microscope. […] The whole cell number (t) of each image was counted. Along therewith, the length of cell neurite and the diameter of cell body were measured using an image analysis software (MacSCOPE, manufactured by MITANI CO.), and the cells having a neurite with a length of not less than twice the diameter of the cell body were counted as neuritogenetic cell (a). Then the rate (%) of the total neuritogenetic cell number (a1+a2+ . . . +an=Σa) to the total cell number (Σt) was calculated. […]

Structure (SMILES)	rate of the neuritogenetic cells relative to the total cells ([1]; final concentration 10 μM)	melting point [°C]	rate of the neuritogenetic cells relative to the total cells ([1]; final concentration 1 μM)
COc1cc2nc(Cl)nc(Nc3ccc4[nH]ncc4c3)c2cc1OC [compound 1, 2-Chloro-6,7-dimethoxy-N-[5-1H-indazolyl]quinazoline-4-amine]	about 41%	278.7 to 283.8	–
Cl.Cl.Cl.Cl.O.c1ccc(CN2CCC(Nc3ccc4[nH]ncc4c3)CC2)cc1.c1ccc(CN2CCC(Nc3ccc4[nH]ncc4c3)CC2)cc1 [compound 2, N-(1-benzyl-4-piperidinyl)-1H-indazole-5-amine dihydrochloride.½ hydrate]	about 57%	–	–
C=C(C(=O)c1ccc(C=CC(=O)O)cc1)c1c(F)c(F)c(F)c(F)c1F [compound 3, 4-[2-(2,3,4,5,6-Pentafluorophenyl)acryloyl]cinnamic acid]	–	–	about 51%
O=S(=O)(c1cccc2cnccc12)N1CCCNCC1 [compound 4, Fasudil hydrochloride]	about 70%	–	–
